For one assay, the target named is T1, H3 receptor (Rattus norvegicus, UniProt Q9QYN8).
T1 construct: membranes to be tested were prepared from brain frontal cortex membranes by homogenization; from tissue; host or cells: frontal cortex of adult male Sprague-Dawley rats
Kind of assay: Rat H3 ex vivo receptor occupancy assay. The following applies: dose giving 50% H3 receptor occupancy; ex vivo binding of [3H] R-α-methylhistamine in rat frontal cortical membranes. How it is done: This assay was designed to measure occupancy of H3 receptors by compounds provided herein by measuring the competition of binding to the H3 receptor with a radiolabeled ligand known to bind to the H3 receptor. More specifically, receptor occupancy was determined by ex vivo binding studies in rat cortical membranes.
Adult male Sprague-Dawley rats were treated with vehicle or compound at four different dose levels. After an appropriate pre-treatment time (typically 30 min to 1 hr), membranes to be tested were prepared from brain frontal cortex membranes by homogenization in ice-cold assay buffer. Frontal cortical membranes (400 μL containing an equivalent of 5 mg wet weight of tissue/tube) were incubated with 50 µL of [^3H] R-α-methylhistamine (final concentration 2 nM) and either 50 μL of buffer (total binding) or 50 μL of imetit (10 μM; non-specific binding) for 30 min at 25° C. in triplicates. Membrane bound radioactivity was recovered by filtration under vacuum through Skatron 11731 filters, pre-soaked in 0.5% PEI. Filters were rapidly washed with ice-cold 50 mM Tris buffer (wash setting 9,9,0) and radioactivity was determined by liquid scintillation counting (1 mL Packard MV Gold Scintillator). The amount of radioactivity in the membranes at the different doses was used generate a dose response curve and to calculate the ED50 (the dose that results in 50% receptor occupancy).
ED50 is the amount of drug at which 50% of the H3 receptors are occupied by the drug as measured by the amount of radioactivity measured at that dose relative to that measured when no drug (or vehicle) was administered.

In a further assay the test system is Sprague-Dawley rats. The assay is described as follows: Rat EEG assay. In kind it is in vivo. The following applies: for number of wake and non-REM sleep bouts / wake bout duration / wake promotion / time spent in REM sleep / time spent in non-REM sleep / time spent in wake: EEG; for normalized power in the 40-60 Hz range (EEG spectral analysis): EEG spectra; for wake promotion: first 6 hours post-dosing; for time spent in REM sleep / time spent in non-REM sleep / time spent in wake: relative to vehicle treated animals. How it is done: The rat EEG assay was designed to measure electrical signals from the brain as a proxy for in vivo biological activity at the H3 receptor.
Specifically, animals were housed in a temperature-controlled recording room under a 12 hour/12 hour light/dark cycle, with food and water available ad libitum. Eight male Sprague-Dawley rats were implanted with chronic recording devices for continuous recordings of electroencephalograph (EEG) via telemetry (Data Sciences Inc). A repeated measures design was employed in which each rat received eight separate dosings of the compound being tested with a minimum of 3 days between doses. […] EEG data were scored visually in 10 second epochs for wake, REM, and non-REM states. Scored data were analyzed and expressed as time spent in each state per hour. Cumulative time spent in wake, non-REM, and REM states were calculated for the 6 hour recording period. To determine whether any of the pharmacological treatments affected the consolidation of behavioral states, the duration and number of bouts for each state were calculated in hourly bins. A “bout” consisted of a minimum of two consecutive 10-second epochs of a given state and ended with any single state change epoch. The EEG spectra during wake and non-REM sleep were analyzed offline with a fast Fourier transform algorithm (NeuroScore software, Data Sciences Inc) on all epochs without a visually detectable artifact. Wake EEG spectra were analyzed in 1 Hz bins. Data were analyzed using two-way repeated-measures ANOVA.
For both compounds, there was an increase in the time spent in wake, a decrease in the time spent in non-REM sleep, and no change in the time spent in REM sleep relative to vehicle treated animals.

Assay [1] has as its target human histamine H3 receptor (Homo sapiens, UniProt Q9Y5N1). Kind of assay: H3 GTPγS assay (SPA method), histamine H3 in vitro assay. Type of assay: biochemical. Here is the method:
Briefly, cells expressing the human histamine H3 receptor were homogenized in 15 mM Tris-HCl pH 7.5, 2 mM MgCl2, 0.3 mM EDTA, and 1 mM EGTA. […] Membranes were frozen in liquid nitrogen until use. On the day of the assay, membranes were thawed and diluted in assay buffer (20 mM HEPES pH 7.4, 100 mM NaCl, 10 μg/ml saponin, 1 mM MgCl2) to give 500 μg/ml and mixed (v/v) with GDP in assay buffer for a final GDP concentration of 10 μM and incubated on ice for at least […]. PVT-WGA beads (Amersham, RPNQ001) were diluted in assay buffer at 50 mg/mL and mixed with GTPγ[^35S] (Amersham, SJ1308) diluted in assay buffer to give ˜25,000 dpm/10 μL and mixed vol/vol just before the start of the reaction.
For antagonists testing, 10 μL of a reference agonist ([…]) instead of 10 μL buffer was added at a concentration corresponding to the EC80 (30 nM).
The compounds provided herein were tested in the histamine H3 in vitro assay. In one embodiment, the respective HCl salts of the compounds provided herein were prepared using standard chemical procedures and tested in the histamine H3 in vitro assay.

Setting [2] is: membranes of cells expressing human H3, GTPγ[35S] SPA, antagonist testing with reference agonist at EC80 (30 nM), in one embodiment HCl salts tested, read-out: Potency (functional potency as indicated by IC50).

Like-named read-outs stand apart in the source and are kept apart here. Bounds are passed on as bounds.

Data on 13 compounds can be found in patent US20110065694A1 (priority 2009, published 2011).

T1 sequence (Q9QYN8 whole entry): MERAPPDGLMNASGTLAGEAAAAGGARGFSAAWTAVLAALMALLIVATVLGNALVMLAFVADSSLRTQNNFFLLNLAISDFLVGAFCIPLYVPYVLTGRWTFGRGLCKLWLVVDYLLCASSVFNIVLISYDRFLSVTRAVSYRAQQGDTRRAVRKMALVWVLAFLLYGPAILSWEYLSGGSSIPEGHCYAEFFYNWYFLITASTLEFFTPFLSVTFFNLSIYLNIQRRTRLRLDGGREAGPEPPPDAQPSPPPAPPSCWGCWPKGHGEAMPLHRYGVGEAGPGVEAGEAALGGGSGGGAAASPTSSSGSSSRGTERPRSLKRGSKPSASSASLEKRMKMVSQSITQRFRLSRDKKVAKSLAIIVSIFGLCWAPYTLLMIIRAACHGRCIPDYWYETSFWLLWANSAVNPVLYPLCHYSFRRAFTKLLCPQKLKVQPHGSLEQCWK
Chain of human histamine H3 receptor (Q9Y5N1 whole entry): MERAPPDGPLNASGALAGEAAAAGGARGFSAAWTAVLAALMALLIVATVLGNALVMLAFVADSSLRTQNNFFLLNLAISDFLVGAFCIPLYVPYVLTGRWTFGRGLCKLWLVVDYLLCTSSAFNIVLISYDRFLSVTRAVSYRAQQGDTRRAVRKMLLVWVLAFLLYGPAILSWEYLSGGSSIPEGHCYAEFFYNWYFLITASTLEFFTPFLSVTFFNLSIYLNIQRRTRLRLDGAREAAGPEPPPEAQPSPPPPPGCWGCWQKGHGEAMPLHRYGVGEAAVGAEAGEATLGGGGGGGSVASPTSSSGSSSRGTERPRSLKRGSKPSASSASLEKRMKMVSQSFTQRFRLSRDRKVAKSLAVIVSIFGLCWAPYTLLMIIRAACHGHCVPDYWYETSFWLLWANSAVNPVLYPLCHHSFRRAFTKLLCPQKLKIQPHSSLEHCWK

For orientation: ED50 means the dose at which the effect has come halfway, by size or by number of responders. The term IC50 denotes the midpoint of a concentration-inhibition curve. As for `c1cn2cc(-c3ccc4c(c3)nc3n4CCN4CCCC[C@@H]4C3)ccc2n1` (single isomer, unassigned) [Compound 48], the ED50 at H3 receptor is at most 1 mg/kg. In addition, in the assay on Sprague-Dawley rats, the “number of wake and non-REM sleep bouts” value is recorded as “decrease”; the wake bout duration entry is “increase”; the “normalized power in the 40-60 Hz range (EEG spectral analysis)” value is listed as “increase”; the wake promotion result is reported as “wake promoting”. Also, in the assay with Sprague-Dawley rats, the “time spent in REM sleep” value is reported as “no change”, the “time spent in non-REM sleep” value is “decrease” and the “time spent in wake” value was “increase”. Also, the half-maximal inhibitory concentration (IC50) in assay [1] (setting [2]) was under 10 nM.
Consider `c1ccc2c(c1)CCN(Cc1ccc3c(c1)nc1n3CCN3CCCC[C@@H]3C1)C2` (single isomer, unassigned) [Compound 64], for which the ED50 on H3 receptor was at least 1 mg/kg. Also, the IC50 in assay [1] (setting [2]) was under 10 nM.
In turn, `c1cn2cc(-c3ccc4c(c3)nc3n4CCCN(C4CCC4)CC3)ccc2n1` [Compound 59, 3-cyclobutyl-10-(imidazo[1,2-a]pyridin-6-yl)-1,2,3,4,5,6-hexahydrobenzo[4,5]imidazo[1,2-a][1,5]diazocine] gave an ED50 at H3 receptor of at most 1 mg/kg. Further, in the assay on Sprague-Dawley rats, the “number of wake and non-REM sleep bouts” value was “decrease”; the wake bout duration result was “increase”; the “normalized power in the 40-60 Hz range (EEG spectral analysis)” value is “increase”; the wake promotion result is given as “wake promoting”. In addition, in the assay with Sprague-Dawley rats, the “time spent in REM sleep” value is on record as “no change”, the “time spent in non-REM sleep” value was “decrease” and the “time spent in wake” value was “increase”. Besides, the IC50 in assay [1] (setting [2]) is under 10 nM.
On to `Brc1ccc2c(c1)nc1n2CCN2CCCC2C1` (centres unmarked) [Compound 72, 10-bromo-2,3,5,6,13,13a-hexahydro-1H-benzo[4,5]imidazo[1,2-d]pyrrolo[2,1-g][1,4]diazepine], for which the IC50 in assay [1] is under 100 nM.
Regarding `N#Cc1ccc(-c2ccc3c(c2)nc2n3CCN3CCCC3C2)cc1` (centres unmarked) [Compound 73, 4-(2,3,5,6,13,13a-hexahydro-1H-benzo[4,5]imidazo[1,2-d]pyrrolo[2,1-g][1,4]diazepin-10-yl)benzonitrile], the IC50 in assay [1] (setting [2]) is under 10 nM.
As for `c1cn2cc(-c3ccc4c(c3)nc3n4CCN4CCCC4C3)ccc2n1` (centres unmarked) [Compound 74, 10-(imidazo[1,2-a]pyridin-6-yl)-2,3,5,6,13,13a-hexahydro-1H-benzo[4,5]imidazo[1,2-d]pyrrolo[2,1-g][1,4]diazepine], the concentration for half-maximal inhibition (IC50) in assay [1] (setting [2]) was under 10 nM.
For the compound `c1cc2c(cc1CN1CCOCC1)nc1n2CCN2CCCC2C1` (centres unmarked) [Compound 75, 4-((2,3,5,6,13,13a-hexahydro-1H-benzo[4,5]imidazo[,2-d]pyrrolo[2,1-g][1,4]diazepin-10-yl)methyl)morpholine], in assay [1] (setting [2]), the half-maximal inhibitory concentration (IC50) is under 10 nM.
Still for that read-out and setting: the result for `c1ccc2c(c1)CCN(Cc1ccc3c(c1)nc1n3CCN3CCCC3C1)C2` (centres unmarked) [Compound 76, 10-((3,4-dihydroisoquinolin-2(1H)-yl)methyl)-2,3,5,6,13,13a-hexahydro-1H-benzo[4,5]imidazo[1,2-d]pyrrolo[2,1-g][1,4]diazepine] reads under 10 nM; that for `Brc1ccc2c(c1)nc1n2CCCN2CCCC2C1` (centres unmarked) [Compound 79, 11-bromo-1,2,3,5,6,7,14,14a-octahydrobenzo[4,5]imidazo[1,2-a]pyrrolo[2,1-d][1,5]diazocine], under 100 nM.
Same read-out and setting: as for `N#Cc1ccc(-c2ccc3c(c2)nc2n3CCCN3CCCC3C2)cc1` (centres unmarked) [Compound 80, 4-(1,2,3,5,6,7,14,14a-octahydrobenzo[4,5]imidazo[1,2-a]pyrrolo[2,1-d][1,5]diazocin-11-yl)benzonitrile], the figure is under 10 nM; as for `c1cn2cc(-c3ccc4c(c3)nc3n4CCCN4CCCC4C3)ccc2n1` (centres unmarked) [Compound 81, 11-(imidazo[1,2-a]pyridin-6-yl)-1,2,3,5,6,7,14,14a-octahydrobenzo[4,5]imidazo[1,2-a]pyrrolo[2,1-d][1,5]diazocine], under 10 nM.
Consider `c1cc2c(cc1CN1CCOCC1)nc1n2CCCN(C2CCC2)CC1` [Compound 84, 4-((3-cyclobutyl-1,2,3,4,5,6-hexahydrobenzo[4,5]imidazo[1,2-a][1,5]diazocin-10-yl)methyl)morpholine], for which, on H3 receptor, the median effective dose (ED50) was at least 1 mg/kg. For the same compound, the 50% inhibitory concentration (IC50) in assay [1] (setting [2]) was under 10 nM.
On the same counts, the results for `c1ccc2c(c1)CCN(Cc1ccc3c(c1)nc1n3CCCN(C3CCC3)CC1)C2` [Compound 85, 3-cyclobutyl-10-((3,4-dihydroisoquinolin-2(1H)-yl)methyl)-1,2,3,4,5,6-hexahydrobenzo[4,5]imidazo[1,2-a][1,5]diazocine] are at most 1 mg/kg and under 10 nM.
